These results are taken from publication PMC5412883, “An intranasally delivered peptide drug ameliorates cognitive decline in Alzheimer transgenic mice” (EMBO Molecular Medicine, 2017).

One data set addresses T1, Aβ40 (Homo sapiens, UniProt P05067).
T1 construct: made in house; host or cells: chemical solid-phase peptide synthesis (Fmoc-polyamide), no expression host
The data set is described as follows: Inhibition of Aβ40 fibrillization (CD spectra, TEM). The data set is classed as biochemical. The following applies: for Aβ40 fibril formation in the presence of peptide at 1:1 ratio (kinetics of CD spectra): authors' reply in review file. Here is the method:
(§1) The 1.4 mM stock solution of each peptide in 75% trifluoroethanol was diluted to a final concentration of 30 μM in 20 mM sodium phosphate buffer with 150 mM KCl (PBS, pH 7). Each was incubated at 25°C for designated time points and placed in a 1‐mm cell to record the CD spectra between 200 and 250 nm on a J‐715 CD spectrometer (JASCO, Japan). The band width was set to 2 nm, and the step resolution was 0.05 nm. Each sample was scanned twice and the average of these two measurements was smoothed by the Savitzky–Golay method to get the final CD spectrum.
(§2) The samples were deposited on carbon‐coated 300‐mesh copper grids, incubated for 3 min for absorption, and then washed by water. Negative staining was carried out by staining with 2% uranyl acetate for 1.5 min. After air drying, the samples were viewed using a Hitachi H‐7000 electron microscope (Hitachi, Japan).
Appendix Figure S2. Effect of the designed bipartite peptides on inhibition of A β 40 fibrillization. The peptides were dissolved in 20 mM sodium phosphate buffer with 150 mM KCl and incubated at 25 °C. Peptide concentration is 30 µM for each peptide. The CD spect ra of A β 40 (A), the Aβ 40/R 8-Aβ (25-35) mixture (1:1) (B), and the Aβ 40/DR8-Aβ (25-35) mixture (1:1) (C) were recorded at the indicated incubation times shown in (A). The spectrum change is pointed out by an arrow in (A), indicating the formation of cross-β structure in the am yloid fibrils. (D) The time course of am yloido gen es is of Aβ 40 with and without the designed peptide inhibitors .
The CD spectra were not smoothed. (A) is the same as Fi g. S1A.
(§3) (1 picture or pasted object on this page, not shown here)

Data set [1] concerns Aβ40 toxicity to Neuro2a cells. As to the kind of experiment: Attenuation of Aβ40 cytotoxicity, MTT assay. The following applies: Aβ40 30 μM premixed with 30 μM peptide for 24 h at room temperature; Aβ40 alone 30%; MTT 48 h later, N = 12. The data set is classed as cell-based, mouse. On the procedure: (§4) Data information: Peptide concentration is 30 μM for each peptide. Standard deviations of the mean are shown as bars for each sample (N = 6 for pure peptide and N = 12 for mixture). The statistics were done by Student's t‐test. Mouse N2a neuroblastoma cells (ATCC) were cultured in Dulbecco's modified Eagle's medium (DMEM) (HyClone, USA) supplemented with 10% fetal bovine serum (HyClone, USA). Cells were harvested with DMEM and suspended at a density of 3.5 × 10^5 cells/ml. 100 μl from each sample was plated in one well of a 96‐well CellBIND microplate (Corning, USA) and then incubated at 37°C under 5% CO2 for 24 h. Five microliters from each stock peptide (6 mM) in DMSO was diluted with 95 μl of PBS (pH 7.0) and then 900 μl of DMEM to a final concentration of 30 μM.
(In general: Formazan colour is commonly taken as a measure of viable cells.)

The next data set has as its system Neuro2a cells. The data set is described as follows: Cell viability by MTT assay, peptide alone. The data set is classed as cell-based, mouse. The following applies: 30 μM peptide, MTT 48 h later, N = 6. Here is the method:
as §4

Data set [2] is described as follows: CD spectra and TEM of the single peptides (conformation, self-aggregation). The data set is classed as physicochemical. The following applies: 30 μM peptide in 20 mM sodium phosphate buffer with 150 mM KCl (pH 7), 25°C; for amyloid fibril formation (TEM): incubation for 168 h; for conformation by CD spectra: spectra largely unchanged with incubation time. Here is the method:
The circular dichroism (CD) spectra were recorded at various time points as indicated. […] The CD spectra of both peptides remained largely unchanged with the incubation time.
as §1, §2
DR8-Aβ (25-35). The peptides were dissolved in 20 mM sodium phosphate b u ff e r with 150 mM KCl and incubated at 25 °C. Pept ide concentration is 30 µ M. (A-C) The CD spectra were recorded at the indicated incubation time shown in (A).(D -F) […]
formed nucleus ver y fast and β -sheet signal (negative ellipticity at 218 nm) can be seen in the beginning of i ncubation. The CD spectra were not smoothed.
as §3

Where a SMILES comes first, the peptide text is derived from it. [ ]: non-standard residue; d: D form.

T1 sequence (P05067 672-711): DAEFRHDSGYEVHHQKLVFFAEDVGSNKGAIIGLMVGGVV

`CC[C@H](C)[C@H](NC(=O)[C@H](C)NC(=O)CNC(=O)[C@H](CCCCN)NC(=O)[C@H](CC(N)=O)NC(=O)[C@H](CO)NC(=O)CNC(=O)[C@@H](CCCNC(=N)N)NC(=O)[C@@H](CCCNC(=N)N)NC(=O)[C@@H](CCCNC(=N)N)NC(=O)[C@@H](CCCNC(=N)N)NC(=O)[C@@H](CCCNC(=N)N)NC(=O)[C@@H](CCCNC(=N)N)NC(=O)[C@@H](CCCNC(=N)N)NC(=O)[C@@H](CCCNC(=N)N)NC(C)=O)C(=O)N[C@H](C(=O)NCC(=O)N[C@@H](CC(C)C)C(=O)N[C@@H](CCSC)C(N)=O)[C@@H](C)CC` [^DR8‐Aβ(25–35)] (Ac-[dR][dR][dR][dR][dR][dR][dR][dR]GSNKGAIIGLM-NH2): at Aβ40, the “Aβ40 fibril formation in the presence of peptide at 1:1 ratio (kinetics of CD spectra)” value was “failed to formed fibrils”. For the same compound, on Aβ40 (Aβ40 30 μM and peptide 30 μM (1:1), pH 7, 25°C, CD), the “inhibition effect on Aβ40 fibrillization, 1:1 mixture” value is reported as “inhibition effect was also observed”. Besides, the “cell viability with Aβ40 plus equal molar peptide” value in data set [1] is reported as 70–75%. Further, the “toxicity to the N2a cells” value in the data set on Neuro2a cells is recorded as “no detectable toxicity”. In data set [2], the “amyloid fibril formation (TEM)” value is reported as “did not form amyloid fibrils at all” and the “conformation by CD spectra” value is reported as “random coil structure”.

For “Ac-RRRRRRRRGSNKGAIIGLM-NH2 [R8‐Aβ(25–35)]”, the “Aβ40 fibril formation in the presence of peptide at 1:1 ratio (kinetics of CD spectra)” value on Aβ40 was “failed to formed fibrils”. On Aβ40 (Aβ40 30 μM : peptide 1:0.1), the “inhibition effect on Aβ40 fibrillization at the lowest ratio” value was “observed even when its concentration was ten times lower than Aβ40”. Further, the “effect on formation of Aβ40 amyloid fibrils (CD 218 nm, TEM)” value at Aβ40 (Aβ40 30 μM mixed with peptide at 1:0.1, 1:0.2 or 1:1 molar ratio, pH 7, 25°C) is reported as “significantly delayed or decreased the formation of Aβ40 amyloid fibrils”. Besides, the “cell viability with Aβ40 plus equal molar peptide” value in data set [1] is given as 70–75%. Moreover, the “toxicity to the N2a cells” value with Neuro2a cells is “no detectable toxicity”. For the same compound, in data set [2], the “amyloid fibril formation (TEM)” value was “did not form amyloid fibrils at all” and the “conformation by CD spectra” value is given as “random coil structure”.
